This note sets out measurements from article PMC12285266, “Function and regulation of pob genes for 4-hydroxybenzoate catabolism in Agrobacterium tumefaciens” (Applied and Environmental Microbiology, 2025).

For data set [1], the target named is T1, PobR (Atu4545), HIS-atu4545 (Agrobacterium fabrum, UniProt Q7CV81).
T1 construct: full ORF (924 bp) in pET30a, N-terminal His tag kept, E. coli BL21(DE3)
T1 sequence (Q7CV81 1-307): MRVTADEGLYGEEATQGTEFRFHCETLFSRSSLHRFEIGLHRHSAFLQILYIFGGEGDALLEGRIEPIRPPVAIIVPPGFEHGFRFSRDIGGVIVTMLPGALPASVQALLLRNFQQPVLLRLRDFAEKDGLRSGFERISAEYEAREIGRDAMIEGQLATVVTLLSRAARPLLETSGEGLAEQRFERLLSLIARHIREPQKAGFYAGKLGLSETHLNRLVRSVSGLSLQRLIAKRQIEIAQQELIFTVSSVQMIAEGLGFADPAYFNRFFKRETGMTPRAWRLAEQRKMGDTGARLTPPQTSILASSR
The experiment in a line: EMSA, effect on PobR/DNA complex formation. It counts as binding. To be noted: FAM-labelled atu4544-atu4545 intergenic DNA; varying concentrations; pH 8.0, 25 C.

In data set [2] the target is T2, PobR (HIS-atu4545) (Agrobacterium tumefaciens C58) (UniProt Q7CV81).
T2 sequence: T1 sequence (Q7CV81 1-307)
The experiment in a line: competition. To be noted: EMSA: per 50 mL binding buffer 0.394 g Tris-base, 0.186 g KCl, 0.019 g EDTA-2Na, 10% glycerol, 0.008 g DTT (about 65 mM Tris, 50 mM KCl, 1 mM EDTA, 1 mM DTT) …. (Mobility shift assays separate free from complexed probe on a gel.)

Data set [3] concerns the target T3, PobA (Atu4544), GST-atu4544 (Agrobacterium fabrum, UniProt Q7CV80).
T3 construct: full ORF (1,173 bp) in pGEX-4T-1, N-terminal GST tag kept, E. coli BL21(DE3), about 70 kDa with tag
The experiment in a line: HPLC of substrate consumption and protocatechuate formation. The settings on record: NADPH or NADH 0.4 mM, FAD 5 uM, 0.5 mM substrate, 50 mM Tris-Cl pH 7.4, 30 C; GST-tagged enzyme. It counts as biochemical.

T3 sequence (Q7CV80 1-390): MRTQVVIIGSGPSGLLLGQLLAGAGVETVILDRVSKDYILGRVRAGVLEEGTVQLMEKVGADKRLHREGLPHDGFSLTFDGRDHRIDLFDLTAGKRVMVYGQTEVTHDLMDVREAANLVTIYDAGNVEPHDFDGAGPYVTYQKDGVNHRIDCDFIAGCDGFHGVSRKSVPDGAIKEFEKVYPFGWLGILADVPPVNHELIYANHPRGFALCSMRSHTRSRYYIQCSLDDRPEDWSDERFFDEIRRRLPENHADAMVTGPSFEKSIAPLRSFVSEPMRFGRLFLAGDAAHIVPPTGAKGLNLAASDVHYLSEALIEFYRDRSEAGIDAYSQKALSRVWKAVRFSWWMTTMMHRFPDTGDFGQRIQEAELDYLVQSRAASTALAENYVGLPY

For `O=C(O)CCCCC(=O)O` [adipic acid], the “EMSA, effect on PobR/DNA complex formation” value in data set [1] is “The increased adipic acid seemed to hinder the binding of the PobR/DNA probe”.

Take “CATCGTGACGATCACTCCACCGATATCGCGTGAAAAGCGGAAGCCATGTTCGAAACCCGGTGGCACGATGATGGCGACCGGCGGGCGGATCGGCTCGATGCGGCCTTCCAGCAACGCATCGATCGTCGACCTGCAGGCA (double strand) [unrelated DNA (pobR-inter)]”: in data set [2], the binding result is reported as “no binding”.

Consider `O=C(O)c1ccc(O)cc1` [4-hydroxybenzoate], for which the “HPLC of substrate consumption and protocatechuate formation” value in data set [3] is listed as “Atu4544 (PobA) catalyzed the hydroxylation of 4-hydroxybenzoate to produce protocatechuate”.

Regarding “CATCTCACCATCACTCCTCCGTGCGATGGTCGGATTGTGCAATTTACAGACAGAAAAGTCCATTGAGCTTGTGGCCGGTCTTGGTCAATTTCTTGACCGGAGACAAGTTCGGGAGGACATCATCGTCGACCTGCAGGCA (double strand) [unlabeled intergenic competitor]”, in data set [2], the binding entry is reported as “binds”.
